These results are taken from PubChem BioAssay (NCI).

Among the test systems are SF-268 CNS; UACC-257 melanoma; BT-549 breast; SR leukemia; SK-OV-3 ovarian; SNB-75 CNS; TK-10 renal; HCT-15 colon; HT29 colon; HCC-2998 colon.
Experiment in all cases: NCI tumour cell line growth inhibition, 48 h

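A five-concentration, 48-hour dose response in 96-well plates underlies each endpoint, interpolated linearly between surrounding concentrations. The concentration for 50% growth inhibition is given as GI50. TGI: total growth inhibition.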

Take `O=[N+]([O-])c1ccc2c(c1)/C(=N/N=C1c3ccccc3Cc3ccccc31)c1cc([N+](=O)[O-])cc([N+](=O)[O-])c1-2`: the TGI in the test on SF-268 CNS was 5.81 µM; in the test on UACC-257 melanoma it was 4.38 µM; with BT-549 breast, 2.87 µM; in the test on SR leukemia, more than 25.7 µM; in the test on SK-OV-3 ovarian it was 27.3 µM; in the test with SNB-75 CNS, 9.28 µM. Also, the TGI in the test with TK-10 renal was 11.5 µM; in the test with HCT-15 colon, 4.99 µM; in the test on HT29 colon, 4.07 µM; in the test with HCC-2998 colon, 12.8 µM.
Take `OC1CSSC1Cn1cnc2c(Nc3ccc(OCc4cccc(F)c4)c(Cl)c3)ncnc21` (centres undefined): the GI50 with SF-268 CNS was 0.56 µM; with UACC-257 melanoma, 4.09 µM; with BT-549 breast, 4.98 µM; in the test with SR leukemia, 0.407 µM; in the test on SK-OV-3 ovarian, 0.75 µM; in the test with SNB-75 CNS it was 4.16 µM. Moreover, the GI50 with TK-10 renal is 1.15 µM; in the test on HCT-15 colon, 0.767 µM; in the test on HT29 colon it was 0.744 µM; in the test with HCC-2998 colon it was 0.952 µM. Also, the TGI with SF-268 CNS worked out at 2.9 µM; in the test on UACC-257 melanoma, 15.4 µM; in the test on BT-549 breast, 12.1 µM; in the test with SR leukemia, 1.59 µM; in the test on SK-OV-3 ovarian it was 1.75 µM; with SNB-75 CNS, 8.8 µM. The TGI stood at 5.01 µM in the test with TK-10 renal, 2.16 µM in the test on HCT-15 colon, 3.91 µM in the test with HT29 colon and 3.49 µM in the test with HCC-2998 colon.
In the case of `Cc1cc(-c2nc(C(=O)Nc3cc4oc(N5CCOCC5)nc4nc3N3CC[C@@H](O)C3)co2)ccn1`, the GI50 was 61.7 µM in the test with SF-268 CNS; 88.8 µM with UACC-257 melanoma; 33 µM with BT-549 breast; 30.9 µM in the test on SR leukemia; 16.6 µM in the test with SK-OV-3 ovarian; 9.41 µM in the test with SNB-75 CNS. Besides, the GI50 with TK-10 renal is 26.7 µM; in the test with HCT-15 colon, 25.7 µM; with HT29 colon, more than 100 µM; in the test with HCC-2998 colon, 55 µM. Further, the TGI was more than 100 µM in the test with SF-268 CNS; more than 100 µM in the test on UACC-257 melanoma; more than 100 µM with BT-549 breast; more than 100 µM in the test with SR leukemia; 66.9 µM in the test on SK-OV-3 ovarian; 69.2 µM in the test on SNB-75 CNS. For the same compound, the TGI with TK-10 renal, in the test on HCT-15 colon, with HT29 colon and in the test with HCC-2998 colon was more than 100 µM in each case.
As to `NC(N)=NS(=O)(=O)c1ccc(Nc2c3ccccc3nc3c(C(=O)NCCO)cccc23)cc1`, the GI50 in the test on SF-268 CNS was 16.3 µM; in the test with UACC-257 melanoma, 39.4 µM; with BT-549 breast, 33.8 µM; in the test with SR leukemia it was 30.7 µM; in the test on SK-OV-3 ovarian, 51.6 µM; in the test on TK-10 renal it was 18.7 µM. The GI50 in the test on HCT-15 colon is 32.2 µM; with HT29 colon, 29.7 µM; in the test with HCC-2998 colon, 0.0928 µM. For the same compound, the TGI in the test on SNB-75 CNS worked out at 55.2 µM.
`COc1ccc2c(c1)sc1nc(-c3ccccc3)c(-c3cccc4ccccc34)n12`: the GI50 was 0.878 µM in the test with SF-268 CNS; 0.532 µM with UACC-257 melanoma; 1.15 µM with BT-549 breast; 0.323 µM with SR leukemia; 0.369 µM in the test with SK-OV-3 ovarian; 0.386 µM in the test with SNB-75 CNS. For the same compound, the GI50 was 5.17 µM in the test on TK-10 renal, 0.47 µM in the test with HCT-15 colon, 0.353 µM with HT29 colon and 1.53 µM with HCC-2998 colon. Moreover, the TGI with SF-268 CNS was more than 100 µM; in the test on UACC-257 melanoma, more than 100 µM; in the test with BT-549 breast, more than 93.2 µM; in the test on SR leukemia it was more than 100 µM; in the test on SK-OV-3 ovarian, 2.79 µM; with SNB-75 CNS, more than 100 µM. For the same compound, the TGI in the test with TK-10 renal is more than 100 µM; in the test with HCT-15 colon, more than 38.4 µM; in the test on HT29 colon, 4.38 µM; with HCC-2998 colon it was 36.6 µM.
For `Fc1ccc(NC(=S)SCc2ccc3c(c2)OCO3)cc1F`, the TGI is 52.8 µM in the test on SF-268 CNS; 64 µM with UACC-257 melanoma; 51.4 µM in the test on BT-549 breast; 43.9 µM with SR leukemia; more than 100 µM in the test on SK-OV-3 ovarian; 66.8 µM with SNB-75 CNS. The TGI was more than 100 µM in the test with TK-10 renal, 34.5 µM with HCT-15 colon, 45.3 µM with HT29 colon and 71.5 µM with HCC-2998 colon.
As to `Cc1ccc(CN2CCC(C(=O)Nc3ccc(-c4cc5ccccc5[nH]4)cc3)CC2)o1`, the GI50 in the test on SF-268 CNS was more than 100 µM; in the test on UACC-257 melanoma it was more than 100 µM; with BT-549 breast it was more than 100 µM; with SR leukemia, 4.3 µM; in the test on SK-OV-3 ovarian it was more than 100 µM; with SNB-75 CNS it was 12.7 µM. The GI50 was more than 100 µM in the test on TK-10 renal, more than 100 µM in the test on HCT-15 colon, 94.2 µM with HT29 colon and more than 100 µM with HCC-2998 colon. The TGI in the test on SF-268 CNS is more than 100 µM; in the test on UACC-257 melanoma, more than 100 µM; in the test on BT-549 breast, more than 100 µM; with SR leukemia, more than 100 µM; in the test on SK-OV-3 ovarian, more than 100 µM; in the test with SNB-75 CNS, 33.1 µM. Also, the TGI with TK-10 renal, in the test on HCT-15 colon, in the test on HT29 colon and with HCC-2998 colon was more than 100 µM throughout.
Regarding `O=C1/C(=C/c2ccc(O)c(O)c2)CCC/C1=C\c1ccc(O)c(O)c1`, the TGI in the test with SF-268 CNS was 14.7 µM; with UACC-257 melanoma it was 17.4 µM; in the test on BT-549 breast it was more than 33.9 µM; in the test with SR leukemia, more than 89.8 µM; in the test with SK-OV-3 ovarian it was 20.7 µM; with SNB-75 CNS, 12.9 µM. The TGI with TK-10 renal was found to be 14.9 µM; in the test on HCT-15 colon, 33.3 µM; with HT29 colon it was 21.2 µM; with HCC-2998 colon it was 11.5 µM.
On to `CN(C)c1ccc(/C=C\C2=[N+](C)c3ccccc3C2(C)C)cc1`, for which the GI50 is 0.654 µM in the test on SF-268 CNS; 1.5 µM in the test with UACC-257 melanoma; 0.423 µM in the test on BT-549 breast; 28.5 µM in the test on SR leukemia; 0.696 µM in the test on SK-OV-3 ovarian; 0.709 µM with SNB-75 CNS. For the same compound, the GI50 in the test on TK-10 renal was 1.25 µM; in the test on HCT-15 colon, 4.18 µM; with HT29 colon, 0.309 µM; in the test on HCC-2998 colon, 1.22 µM. Moreover, the TGI was 34 µM with SF-268 CNS; more than 31.2 µM with UACC-257 melanoma; 11.2 µM with BT-549 breast; more than 100 µM in the test with SR leukemia; more than 24.4 µM in the test on SK-OV-3 ovarian; 19.9 µM with SNB-75 CNS. For the same compound, the figures for the TGI in the test with TK-10 renal, with HCT-15 colon and in the test with HCC-2998 colon were more than 52.4 µM, more than 69.7 µM and 12.9 µM, respectively.
